Test results published in patent publication US20230107642A1 (Erasca, Inc., priority 2020, published 2023).

Molecular target: T1, Cys12 of the KRAS 4B G12C protein (Homo sapiens, UniProt P01116, G12C)
T1 construct: This protein contained 188 amino acids in total, including an N-terminal 6-Histidine tag; made in house; host or cells: E. coli BL21
Assay: In vitro covalent adduct formation (CAF) assay, LC-MS intact mass
Format: binding
Conditions: 10 uM compound, 60 min
Outline: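 GDP-loaded (>95%) His-TEV-tagged KRAS 4B G12C (residues 1–169), 5 μM in TBS pH 7.4, incubated with 10 μM compound (4% DMSO) at 22° C for one hour. Intact-protein LC-MS gave free:adduct ratios, reported as percent protein modified; duplicate runs.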

Row | Structure (SMILES) | % CAF 10 uM @ 60 min
1 | C=CC(=O)N1[C@H](C)CN(c2nc(=O)n3c4c(c(-c5ccc(F)cc5F)c(C(F)(F)F)cc24)SC[C@@H]3COCOC)C[C@@H]1C (atropisomer, axis not shown) [Example 1319, (3S,10S)-7-((3S,5R)-4-acryloyl-3,5-dimethylpiperazin-1-yl)-10-(2,4-difluorophenyl)-3-((methoxymethoxy)methyl)-9-(trifluoromethyl)-2,3-dihydro-5H-[1,4]thiazino[2,3,4-ij]quinazolin-5-one] | 96.3%
2 | C=CC(=O)N1[C@H](C)CN(c2nc(=O)n3c4c(c(-c5ccc(F)cc5F)c(C(F)(F)F)cc24)SC[C@@H]3COCOC)C[C@@H]1C (atropisomer, axis not shown) [Example 1320, (3S,10R)-7-((3S,5R)-4-acryloyl-3,5-dimethylpiperazin-1-yl)-10-(2,4-difluorophenyl)-3-((methoxymethoxy)methyl)-9-(trifluoromethyl)-2,3-dihydro-5H-[1,4]thiazino[2,3,4-ij]quinazolin-5-one] | 97.4%
3 | C=CC(=O)N1C[C@H](C)N(c2nc(=O)n3c4c(c(-c5ccc(F)cc5F)c(C(F)(F)F)cc24)SC[C@@H]3CN2C[C@@H]3C[C@H]2CO3)C[C@H]1C (atropisomer, axis not shown) [Example 1322, (3S,10S)-3-(((1S,4S)-2-oxa-5-azabicyclo[2.2.1]heptan-5-yl)methyl)-7-((2S,5R)-4-acryloyl-2,5-dimethylpiperazin-1-yl)-10-(2,4-difluorophenyl)-9-(trifluoromethyl)-2,3-dihydro-5H-[1,4]thiazino[2,3,4-ij]quinazolin-5-one] | 96.2%
4 | C=CC(=O)N1C[C@H](C)N(c2nc(=O)n3c4c(c(-c5ccc(F)cc5F)c(C(F)(F)F)cc24)SC[C@@H]3CN2C[C@@H]3C[C@H]2CO3)C[C@H]1C (atropisomer, axis not shown) [Example 1323, (3S,10R)-3-(((1S,4S)-2-oxa-5-azabicyclo[2.2.1]heptan-5-yl)methyl)-7-((2S,5R)-4-acryloyl-2,5-dimethylpiperazin-1-yl)-10-(2,4-difluorophenyl)-9-(trifluoromethyl)-2,3-dihydro-5H-[1,4]thiazino[2,3,4-ij]quinazolin-5-one] | 96.1%
5 | C=CC(=O)N1[C@H](C)CN(c2nc(=O)n3c4c(c(-c5ccc(F)cc5F)c(C(F)(F)F)cc24)SC[C@@H]3CN(C)C)C[C@@H]1C (atropisomer, axis not shown) [Example 1324, (3S,10R)-7-((3S,5R)-4-acryloyl-3,5-dimethylpiperazin-1-yl)-10-(2,4-difluorophenyl)-3-((dimethylamino)methyl)-9-(trifluoromethyl)-2,3-dihydro-5H-[1,4]thiazino[2,3,4-ij]quinazolin-5-one] | 82.2%
6 | C=CC(=O)N1[C@H](C)CN(c2nc(=O)n3c4c(c(-c5ccc(F)cc5F)c(C(F)(F)F)cc24)SC[C@@H]3CN(C)C)C[C@@H]1C (atropisomer, axis not shown) [Example 1325, (3S,10S)-7-((3S,5R)-4-acryloyl-3,5-dimethylpiperazin-1-yl)-10-(2,4-difluorophenyl)-3-((dimethylamino)methyl)-9-(trifluoromethyl)-2,3-dihydro-5H-[1,4]thiazino[2,3,4-ij]quinazolin-5-one] | 81.4%
7 | C=CC(=O)N1C[C@H](C)N(c2nc(=O)n3c4c(c(-c5ccc(F)cc5F)c(C(F)(F)F)cc24)SC[C@@H]3COCOC)C[C@H]1C (atropisomer, axis not shown) [Example 1326, (3S,10S)-7-((2S,5R)-4-acryloyl-3,5-dimethylpiperazin-1-yl)-10-(2,4-difluorophenyl)-3-((methoxymethoxy)methyl)-9-(trifluoromethyl)-2,3-dihydro-5H-[1,4]thiazino[2,3,4-ij]quinazolin-5-one] | 82.3%
8 | C=CC(=O)N1C[C@H](C)N(c2nc(=O)n3c4c(c(-c5ccc(F)cc5F)c(C(F)(F)F)cc24)SC[C@@H]3COCOC)C[C@H]1C (atropisomer, axis not shown) [Example 1327, (3S,10R)-7-((2S,5R)-4-acryloyl-3,5-dimethylpiperazin-1-yl)-10-(2,4-difluorophenyl)-3-((methoxymethoxy)methyl)-9-(trifluoromethyl)-2,3-dihydro-5H-[1,4]thiazino[2,3,4-ij]quinazolin-5-one] | 86.3%
9 | C=CC(=O)N1[C@H](C)CN(c2nc(=O)n3c4c(c(-c5ccc(F)cc5F)c(C(F)(F)F)cc24)SC[C@@H]3CN2CCN(CC)CC2)C[C@@H]1C (atropisomer, axis not shown) [Example 1329, (3S,10R)-7-((3S,5R)-4-acryloyl-3,5-dimethylpiperazin-1-yl)-10-(2,4-difluorophenyl)-3-((4-ethylpiperazin-1-yl)methyl)-9-(trifluoromethyl)-2,3-dihydro-5H-[1,4]thiazino[2,3,4-ij]quinazolin-5-one] | 95.4%
10 | C=CC(=O)N1[C@H](C)CN(c2nc(=O)n3c4c(c(-c5ccc(F)cc5F)c(C(F)(F)F)cc24)SC[C@@H]3CN2CCN(CC)CC2)C[C@@H]1C (atropisomer, axis not shown) [Example 1330, (3S,10S)-7-((3S,5R)-4-acryloyl-3,5-dimethylpiperazin-1-yl)-10-(2,4-difluorophenyl)-3-((4-ethylpiperazin-1-yl)methyl)-9-(trifluoromethyl)-2,3-dihydro-5H-[1,4]thiazino[2,3,4-ij]quinazolin-5-one] | 85%
11 | C=CC(=O)N1[C@H](C)CN(c2nc(=O)n3c4c(c(-c5cc(Cl)c(F)cc5F)c(C(F)(F)F)cc24)SC[C@@H]3CN2C[C@@H]3C[C@H]2CO3)C[C@@H]1C (atropisomer, axis not shown) [Example 1331, (3S,10R)-3-(((1S,4S)-2-oxa-5-azabicyclo[2.2.1]heptan-5-yl)methyl)-7-((3S,5R)-4-acryloyl-3,5-dimethylpiperazin-1-yl)-10-(5-chloro-2,4-difluorophenyl)-9-(trifluoromethyl)-2,3-dihydro-5H-[1,4]thiazino[2,3,4-ij]quinazolin-5-one] | 94.5%
12 | C=CC(=O)N1[C@H](C)CN(c2nc(=O)n3c4c(c(-c5cc(Cl)c(F)cc5F)c(C(F)(F)F)cc24)SC[C@@H]3CN2C[C@@H]3C[C@H]2CO3)C[C@@H]1C (atropisomer, axis not shown) [Example 1332, (3S,10S)-3-(((1S,4S)-2-oxa-5-azabicyclo[2.2.1]heptan-5-yl)methyl)-7-((3S,5R)-4-acryloyl-3,5-dimethylpiperazin-1-yl)-10-(5-chloro-2,4-difluorophenyl)-9-(trifluoromethyl)-2,3-dihydro-5H-[1,4]thiazino[2,3,4-ij]quinazolin-5-one] | 87%
13 | C=CC(=O)N1C[C@H](C)N(c2nc(=O)n3c4c(c(-c5cc(Cl)c(F)cc5F)c(C(F)(F)F)cc24)SC[C@@H]3CN2C[C@@H]3C[C@H]2CO3)C[C@H]1C (atropisomer, axis not shown) [Example 1334, (3S,10R)-3-(((1S,4S)-2-oxa-5-azabicyclo[2.2.1]heptan-5-yl)methyl)-7-((2S,5R)-4-acryloyl-2,5-dimethylpiperazin-1-yl)-10-(5-chloro-2,4-difluorophenyl)-9-(trifluoromethyl)-2,3-dihydro-5H-[1,4]thiazino[2,3,4-ij]quinazolin-5-one] | 80%
14 | C=CC(=O)N1C[C@H](C)N(c2nc(=O)n3c4c(c(-c5cc(Cl)c(F)cc5F)c(C(F)(F)F)cc24)SC[C@@H]3CN2C[C@@H]3C[C@H]2CO3)C[C@H]1C (atropisomer, axis not shown) [Example 1335, (3S,10S)-3-(((1S,4S)-2-oxa-5-azabicyclo[2.2.1]heptan-5-yl)methyl)-7-((2S,5R)-4-acryloyl-2,5-dimethylpiperazin-1-yl)-10-(5-chloro-2,4-difluorophenyl)-9-(trifluoromethyl)-2,3-dihydro-5H-[1,4]thiazino[2,3,4-ij]quinazolin-5-one] | 29.7%
15 | C=CC(=O)N1CCN(c2nc(=O)n3c4c(c(-c5cc(Cl)c(F)cc5F)c(C(F)(F)F)cc24)SC[C@@H]3CN2CCN(CC)CC2)CC1 (atropisomer, axis not shown) [Example 1337, (3S,10S)-7-(4-acryloylpiperazin-1-yl)-10-(5-chloro-2,4-difluorophenyl)-3-((4-ethylpiperazin-1-yl)methyl)-9-(trifluoromethyl)-2,3-dihydro-5H-[1,4]thiazino[2,3,4-ij]quinazolin-5-one] | 96.7%
16 | C=CC(=O)N1CCN(c2nc(=O)n3c4c(c(-c5cc(Cl)c(F)cc5F)c(C(F)(F)F)cc24)SC[C@@H]3CN2CCN(CC)CC2)CC1 (atropisomer, axis not shown) [Example 1338, (3S,10R)-7-(4-acryloylpiperazin-1-yl)-10-(5-chloro-2,4-difluorophenyl)-3-((4-ethylpiperazin-1-yl)methyl)-9-(trifluoromethyl)-2,3-dihydro-5H-[1,4]thiazino[2,3,4-ij]quinazolin-5-one] | 99%
17 | C=CC(=O)N1[C@H](C)CN(c2nc(=O)n3c4c(c(-c5cc(Cl)c(F)cc5F)c(C(F)(F)F)cc24)SC[C@@H]3CN2CCN(CC)CC2)C[C@@H]1C (atropisomer, axis not shown) [Example 1339] | 68.7%
18 | C=CC(=O)N1[C@H](C)CN(c2nc(=O)n3c4c(c(-c5cc(Cl)c(F)cc5F)c(C(F)(F)F)cc24)SC[C@@H]3CN2CCN(CC)CC2)C[C@@H]1C (atropisomer, axis not shown) [Example 1340, (3S,10S)-7-((3S,5R)-4-acryloyl-3,5-dimethylpiperazin-1-yl)-10-(5-chloro-2,4-difluorophenyl)-3-((4-ethylpiperazin-1-yl)methyl)-9-(trifluoromethyl)-2,3-dihydro-5H-[1,4]thiazino[2,3,4-ij]quinazolin-5-one] | 89.4%
